Measured values reported in patent US20240408053A1, “ENTERITIS-SUPPRESSING COMPOSITION” (KOBE GAKUIN EDUCATIONAL FOUNDATION, priority 2021, published 2024).

Legend:
Type in all cases: in vivo, mice
[1] = tested on: MCP-1; assay: MCP-1 expression in colon tissue (qRT-PCR, ELISA); conditions: group ES: 2.0% v/v ethanol diet + 2.5 mg sesaminol per day oral, 2 weeks, vs group E; higher than group C
Text: (§1) It has been reported that chronic consumption of an excessive amount of ethanol can induce inflammation associated with tumor formation in colon tissue. Therefore, in order to verify whether oral administration of sesaminol has a preventive effect on ethanol-induced colitis, the expression levels of inflammatory cytokines (TNF-α and IL-6) and chemokine (MCP-1) in the large intestinal lamina propria of the mice in the four groups (groups C, S, E, and ES) were examined by qRT-PCR and ELISA. The NF-κB activity in the mice in the four groups was also examined. NF-κB is a transcription factor that is involved in expression of genes regulating inflammation and is activated by exposure of immune cells to pro-inflammatory factors.
(§2) Total RNA was extracted from colon tissue samples. […]
(§3) A colon tissue sample (100 mg) was homogenized in 1 mL of an M-PER mammalian protein extraction reagent (Pierce) containing a diluent of a protease inhibitor cocktail (Nacalai Tesque, Inc.), and the resulting homogenate was centrifuged at 20,000× g at 4° C. for 15 minutes. The protein concentration of the supernatant was measured with a protein assay reagent (Bio-Rad Laboratories, Inc.), and equal amounts of proteins were used for analysis of the expression levels of TNF-α, IL-6, and MCP-1 by ELISA.

[2] = tested on: claudin-1; assay: Western blotting of claudin-1 in colon tissue; conditions: group ES: 2.0% v/v ethanol diet + 2.5 mg sesaminol per day oral, 2 weeks, vs group E; lower than group C
Text: (§4) Acetaldehyde, which accumulates during ethanol metabolism, is known to disrupt intestinal tight junctions (TJs) via dissociation of colonic epithelium TJ proteins (ZO-1, occludin, and claudin-1) from the cytoskeleton. […] Therefore, whether oral administration of sesaminol would affect ethanol-induced intestinal barrier dysfunction was examined by analyzing the expression levels of colonic epithelial TJ proteins and the plasma LPS level in the mice in the four groups (groups C, S, E, and ES).
(§5) WB was performed in the same manner as in Example 4 above. The following primary antibodies were used. • Anti-mouse zonula occludens-1 protein (ZO-1) rabbit polyclonal antibody • Anti-mouse occludin rabbit polyclonal antibody • Anti-mouse claudin-1 rabbit polyclonal antibody

[3] = tested on: occludin; assay: Western blotting of occludin in colon tissue; conditions: group ES: 2.0% v/v ethanol diet + 2.5 mg sesaminol per day oral, 2 weeks, vs group E; lower than group C
Text: as §4, §5

[4] = tested on: TNF-α; assay: TNF-α expression in colon tissue (qRT-PCR, ELISA); conditions: group ES: 2.0% v/v ethanol diet + 2.5 mg sesaminol per day oral, 2 weeks, vs group E; higher than group C
Text: as §1, §2, §3

[5] = tested on: Nrf2; assay: Nrf2 activation level in colon tissue extracts by ELISA; conditions: group ES: 2.0% v/v ethanol diet + 2.5 mg sesaminol per day oral, 2 weeks; group E significantly reduced
Procedure: The Nrf2 transcription factor is a master regulator of cytoprotection and promotes HO-1 gene expression in intracellular response to oxidative stress. Thus, in terms of the decrease in the HO-1 expression level in group E, the activation level of the Nrf2 transcription factor was examined. The protein amounts in the colon tissue extracts of the groups were adjusted to be equal, and Nrf2 activation levels in the colon tissue extracts were determined by ELISA.

Oc1cc2c(cc1C1OCC3C(c4ccc5c(c4)OCO5)OCC13)OCO2 (centres unmarked) [Sesaminol]
expression level of MCP-1 (mRNA by qRT-PCR, protein by ELISA) [1]: significantly lower than those in group E | expression level of claudin-1 [2]: significantly higher than those in group E | expression level of occludin [3]: significantly higher than those in group E | expression level of TNF-α (mRNA by qRT-PCR, protein by ELISA) [4]: significantly lower than those in group E | Nrf2 activation level [5]: recovered to a level similar to that in group C
